Structures can show the parent of a compound that is named as a salt.

In this assay the target is BIR3 domain of XIAP (Homo sapiens (Human), UniProt P98170). Briefly: TR-FRET assay for BIR3 (inhibition of binding to Peptide A). The conditions noted are these: 6x His-tagged BIR3 domain (aa 241-356 of XIAP), 20 nM Peptide A, 10 concentrations. On the procedure: TR-FRET Assay for BIR2 and BIR3
Sequence of BIR3 domain of XIAP (P98170 other isoform, or with tags, fused parts or gaps): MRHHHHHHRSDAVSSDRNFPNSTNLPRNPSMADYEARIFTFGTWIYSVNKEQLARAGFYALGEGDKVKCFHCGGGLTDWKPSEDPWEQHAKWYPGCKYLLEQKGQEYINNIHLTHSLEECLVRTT
Percentage of inhibition at each concentration was determined to generate an IC50 value for each test compound.
(In TR-FRET formats the signal depends on donor and acceptor labels being close together.)
As a reminder, the IC50 is the midpoint of a concentration-inhibition curve. Read a low IC50 as higher potency. Consider `CN[C@@H](C)C(=O)N[C@H]1CCc2ccccc2N(Cc2c(C)c(C)cc(C)c2C)C1=O` [Example 47ll, (S)-2-Methylamino-N—[(S)-2-oxo-1-(2,3,5,6-tetramethyl-benzyl)-2,3,4,5-tetrahydro-1H-benzo[b]azepin-3-yl]-propionamide hydrochloride], for which the IC50 is above 57.6 µM. As for `CN[C@@H](C)C(=O)N[C@H]1CCc2ccccc2N(Cc2ccc(CCc3ccccc3)c3ccccc23)C1=O` [Example 49h, (S)-2-Methylamino-N—[(S)-2-oxo-1-(4-phenethyl-naphthalen-1-ylmethyl)-2,3,4,5-tetrahydro-1H-benzo[b]azepin-3-yl]-propionamide hydrochloride], the IC50 is above 54 µM.

Molecule `CN[C@@H](C)C(=O)N[C@H]1CCc2ccccc2N(Cc2c(OC)ccc3cc(Cc4ccccc4)ccc23)C1=O` [Example 49i, (S)—N—[(S)-1-(6-Benzyl-2-methoxy-naphthalen-1-ylmethyl)-2-oxo-2,3,4,5-tetrahydro-1H-benzo[b]azepin-3-yl]-2-methylamino-propionamide hydrochloride] gave an IC50 above 54.8 µM. Take `CN[C@@H](C)C(=O)N[C@H]1CCc2ccccc2N(Cc2cccc3c(Cc4ccccc4)cccc23)C1=O` [Example 49k, (S)—N—[(S)-1-(5-Benzyl-naphthalen-1-ylmethyl)-2-oxo-2,3,4,5-tetrahydro-1H-benzo[b]azepin-3-yl]-2-methylamino-propionamide hydrochloride]: the IC50 is above 54.8 µM. In turn, `CN[C@@H](C)C(=O)N[C@H]1CCc2ccccc2N(Cc2ccc(C3CC3)c3ccccc23)C1=O` [Example 49m, (S)—N—[(S)-1-(4-Cyclopropyl-naphthalen-1-ylmethyl)-2-oxo-2,3,4,5-tetrahydro-1H-benzo[b]azepin-3-yl]-2-methylamino-propionamide hydrochloride] returned an IC50 above 54.8 µM.

`CN[C@@H](C)C(=O)N[C@H]1CCc2ccccc2N(Cc2cccc3c(CN4CCNCC4)cccc23)C1=O` [Example 49n, (S)-2-Methylamino-N—[(S)-2-oxo-1-(5-piperazin-1-ylmethyl-naphthalen-1-ylmethyl)-2,3,4,5-tetrahydro-1H-benzo[b]azepin-3-yl]-propionamide hydrochloride] registered an IC50 above 54.8 µM. Turning to `CN[C@@H](C)C(=O)N[C@H]1CCc2ccccc2N(Cc2ccc(CN3CCOCC3)c3ccccc23)C1=O` [Example 49o, (S)-2-Methylamino-N—[(S)-1-(4-morpholin-4-ylmethyl-naphthalen-1-ylmethyl)-2-oxo-2,3,4,5-tetrahydro-1H-benzo[b]azepin-3-yl]-propionamide hydrochloride], the IC50 was above 54.8 µM. On to `CN[C@@H](C)C(=O)N[C@H]1CCc2ccccc2N(Cc2ccc(CN3CCCCC3)c3ccccc23)C1=O` [Example 49q, (S)-2-Methylamino-N—[(S)-2-oxo-1-(4-piperidin-1-ylmethyl-naphthalen-1-ylmethyl)-2,3,4,5-tetrahydro-1H-benzo[b]azepin-3-yl]-propionamide hydrochloride], for which the IC50 is above 54.8 µM. For `CN[C@@H](C)C(=O)N[C@H]1CCc2ccccc2N(Cc2c(OC)ccc3cc(CN4CCNCC4)ccc23)C1=O` [Example 49r, (S)—N—[(S)-1-(2-Methoxy-6-piperazin-1-ylmethyl-naphthalen-1-ylmethyl)-2-oxo-2,3,4,5-tetrahydro-1H-benzo[b]azepin-3-yl]-2-methylamino-propionamide hydrochloride], the IC50 was above 54.8 µM. Under `CN[C@@H](C)C(=O)N[C@H]1CCc2ccccc2N(Cc2ccc(CN3CCNCC3)c3ccccc23)C1=O` [Example 49s, (S)-2-Methylamino-N—[(S)-2-oxo-1-(4-piperazin-1-ylmethyl-naphthalen-1-ylmethyl)-2,3,4,5-tetrahydro-1H-benzo[b]azepin-3-yl]-propionamide hydrochloride] stands above 54.8 µM; under `CN[C@@H](C)C(=O)N[C@H]1CCc2ccccc2N(Cc2cccc3cccc(C4CC4)c23)C1=O` [Example 49t, (S)—N—[(S)-1-(8-Cyclopropyl-naphthalen-1-ylmethyl)-2-oxo-2,3,4,5-tetrahydro-1H-benzo[b]azepin-3-yl]-2-methylamino-propionamide hydrochloride], above 54.8 µM; under `CN[C@@H](C)C(=O)N[C@H]1CCc2ccccc2N(Cc2c(OC)ccc3cc(-c4ccccc4)ccc23)C1=O` [Example 49u, (S)—N—[(S)-1-(2-Methoxy-6-phenyl-naphthalen-1-ylmethyl)-2-oxo-2,3,4,5-tetrahydro-1H-benzo[b]azepin-3-yl]-2-methylamino-propionamide hydrochloride], above 54.8 µM. `CN[C@@H](C)C(=O)N[C@H]1CCc2ccccc2N(Cc2c(OC)ccc3cc(C(=O)OC)ccc23)C1=O` [Example 50, 6-Methoxy-5-[(S)-3-((S)-2-methylamino-propionylamino)-2-oxo-2,3,4,5-tetrahydro-benzo[b]azepin-1-ylmethyl]-naphthalene-2-carboxylic acid methyl ester hydrochloride] gave an IC50 above 54.8 µM. In turn, `CN[C@@H](C)C(=O)N[C@H]1CCc2ccccc2N(Cc2c(OC)ccc3cc(C(=O)O)ccc23)C1=O` [Example 51, 6-Methoxy-5-[(S)-3-((S)-2-methylamino-propionylamino)-2-oxo-2,3,4,5-tetrahydro-benzo[b]azepin-1-ylmethyl]-naphthalene-2-carboxylic acid] came in with an IC50 above 54.8 µM. Under `CN[C@@H](C)C(=O)N[C@H]1CCc2ccccc2N(Cc2c(OC)ccc3cc(C(=O)NS(C)(=O)=O)ccc23)C1=O` [Example 52a, (S)—N—[(S)-1-(6-Methanesulfonylaminocarbonyl-2-methoxy-naphthalen-1-ylmethyl)-2-oxo-2,3,4,5-tetrahydro-1H-benzo[b]azepin-3-yl]-2-methylamino-propionamide] stands 45 µM; under `CCCS(=O)(=O)NC(=O)c1cccc2c(CN3C(=O)[C@@H](NC(=O)[C@H](C)NC)CCc4ccccc43)c(OC)ccc12` [Example 52b, (S)—N—{(S)-1-[2-Methoxy-5-(propane-1-sulfonylaminocarbonyl)-naphthalen-1-ylmethyl]-2-oxo-2,3,4,5-tetrahydro-1H-benzo[b]azepin-3-yl}-2-methylamino-propionamide hydrochloride], above 54.8 µM; under `CN[C@@H](C)C(=O)N[C@H]1CCc2ccccc2N(Cc2c(OC)ccc3c(C(=O)NS(C)(=O)=O)cccc23)C1=O` [Example 52c, (S)—N—[(S)-1-(5-Methanesulfonylaminocarbonyl-2-methoxy-naphthalen-1-ylmethyl)-2-oxo-2,3,4,5-tetrahydro-1H-benzo[b]azepin-3-yl]-2-methylamino-propionamide hydrochloride], above 54.8 µM. Molecule `CN[C@@H](C)C(=O)N[C@H]1CCc2ccccc2N(Cc2c(OC)ccc3c(C(=O)OC)cccc23)C1=O` [Example 52e, 6-Methoxy-5-[(S)-3-((S)-2-methylamino-propionylamino)-2-oxo-2,3,4,5-tetrahydro-benzo[b]azepin-1-ylmethyl]-naphthalene-1-carboxylic acid methyl ester hydrochloride] came in with an IC50 above 54.8 µM. As for `CN[C@@H](C)C(=O)N[C@H]1CCc2ccccc2N(Cc2cccc3c(C(=O)O)cccc23)C1=O` [Example 52f, 5-[(S)-3-((S)-2-Methylamino-propionylamino)-2-oxo-2,3,4,5-tetrahydro-benzo[b]azepin-1-ylmethyl]-naphthalene-1-carboxylic acid hydrochloride], the IC50 was above 54.8 µM.

`CN[C@@H](C)C(=O)N[C@H]1CCc2ccccc2N(Cc2cccc3c(C(=O)OC)cccc23)C1=O` [Example 52g, 5-[(S)-3-((S)-2-Methylamino-propionylamino)-2-oxo-2,3,4,5-tetrahydro-benzo[b]azepin-1-ylmethyl]-naphthalene-1-carboxylic acid methyl ester hydrochloride] gave an IC50 above 54.8 µM.

Consider `CN[C@@H](C)C(=O)N[C@H]1CCc2ccccc2N(Cc2c(OC)ccc3ccc(C(=O)OC)cc23)C1=O` [Example 52h, 7-Methoxy-8-[(S)-3-((S)-2-methylamino-propionylamino)-2-oxo-2,3,4,5-tetrahydro-benzo[b]azepin-1-ylmethyl]-naphthalene-2-carboxylic acid methyl ester hydrochloride], for which the IC50 was above 54.8 µM. In the case of `CN[C@@H](C)C(=O)N[C@H]1CCc2ccccc2N(Cc2c(OC)ccc3c(C#N)cccc23)C1=O` [Example 53, (S)—N—[(S)-1-(5-Cyano-2-methoxy-naphthalen-1-ylmethyl)-2-oxo-2,3,4,5-tetrahydro-1H-benzo[b]azepin-3-yl]-2-methylamino-propionamide hydrochloride], the IC50 is above 54.8 µM. `CN[C@@H](C)C(=O)N[C@H]1CCc2ccccc2N(Cc2cccc3c(C(N)=O)cccc23)C1=O` [Example 54a, 5-[(S)-3-((S)-2-Methylamino-propionylamino)-2-oxo-2,3,4,5-tetrahydro-benzo[b]azepin-1-ylmethyl]-naphthalene-1-carboxylic acid amide]: the IC50 is above 54.8 µM. The molecule `CN[C@@H](C)C(=O)N[C@H]1CCc2ccccc2N(Cc2c(OC)ccc3cc(C(N)=O)ccc23)C1=O` [Example 54b, 6-Methoxy-5-[(S)-3-((S)-2-methylamino-propionylamino)-2-oxo-2,3,4,5-tetrahydro-benzo[b]azepin-1-ylmethyl]-naphthalene-2-carboxylic acid amide hydrochloride] registered an IC50 above 54.8 µM. With `CN[C@@H](C)C(=O)N[C@H]1CCc2ccccc2N(Cc2c(OC)ccc3ccc(C#N)cc23)C1=O` [Example 54c, (S)—N—[(S)-1-(7-Cyano-2-methoxy-naphthalen-1-ylmethyl)-2-oxo-2,3,4,5-tetrahydro-1H-benzo[b]azepin-3-yl]-2-methylamino-propionamide hydrochloride], the IC50 is above 54.8 µM. The molecule `CN[C@@H](C)C(=O)N[C@H]1CCc2ccccc2N(Cc2c(OC)ccc3cc(C#N)ccc23)C1=O` [Example 54d, (S)—N—[(S)-1-(6-Cyano-2-methoxy-naphthalen-1-ylmethyl)-2-oxo-2,3,4,5-tetrahydro-1H-benzo[b]azepin-3-yl]-2-methylamino-propionamide hydrochloride] returned an IC50 above 54.8 µM.
